Experimental data taken from the supplement of paper PMC11061612.

Assays:
[1] = test system: BFTC-909 (Kidney Carcinoma); assay: Bliss excess, mean over the matrix (fraction); higher = more synergy
Procedure, shortened: (§1)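 After 24 hours at 37°C and 5% CO2 in 1536-well plates, cells in DMEM/F12 or RPMI plus 10% FBS received two-drug dose matrices for 72 hours. Viability came from CellTiter-Glo 2.0 luminescence and was scaled as inhibition, anchored at 0 by vehicle wells and at 1 by blank wells. Combination Emax is taken as the second-highest inhibition in the matrix, and Bliss excess as the observed combination effect less EA + EB − EA·EB, with EA and EB the single-agent effects.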

[2] = test system: HuCCT1 (Biliary Tract Carcinoma); assay: as above
Procedure, shortened: as §1

[3] = test system: NCI-H524 (Small Cell Lung Carcinoma); assay: as above
Procedure, shortened: as §1

[4] = test system: OE21 (Esophageal Squamous Cell Carcinoma); assay: as above
Procedure, shortened: as §1

[5] = test system: SAS (Oral Cavity Carcinoma); assay: as above
Procedure, shortened: as §1

A673 (Ewing's Sarcoma) = assay: combination Emax (second highest fraction inhibited in the dose matrix, 72 h); higher = more inhibition; extreme values may be limits of the assay
Procedure, shortened: as §1

[6] = test system: ALL-PO (B-Lymphoblastic Leukemia); assay: as above
Procedure, shortened: as §1

[7] = test system: BE-13 (T-Lymphoblastic Leukemia); assay: as above
Procedure, shortened: as §1

[8] = test system: HuCCT1 (Biliary Tract Carcinoma); assay: as above
Procedure, shortened: as §1

[9] = test system: HuH-7 (Hepatocellular Carcinoma); assay: as above
Procedure, shortened: as §1

[10] = test system: KMRC-20 (Kidney Carcinoma); assay: as above
Procedure, shortened: as §1

[11] = test system: KYAE-1 (Esophageal Adenocarcinoma); assay: as above
Procedure, shortened: as §1

[12] = test system: L-428 (Hodgkin's Lymphoma); assay: as above
Procedure, shortened: as §1

LOXIMVI (Melanoma) = assay: as above
Procedure, shortened: as §1

[13] = test system: LS-123 (Colorectal Carcinoma); assay: as above
Procedure, shortened: as §1

[14] = test system: MHH-CALL-2 (B-Lymphoblastic Leukemia); assay: as above
Procedure, shortened: as §1

[15] = test system: NCI-H1568 (Lung Adenocarcinoma); assay: as above
Procedure, shortened: as §1

[16] = test system: NCI-H209 (Small Cell Lung Carcinoma); assay: as above
Procedure, shortened: as §1

[17] = test system: NUGC-4 (Gastric Carcinoma); assay: as above
Procedure, shortened: as §1

[18] = test system: OVCAR-5 (Ovarian Carcinoma); assay: as above
Procedure, shortened: as §1
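For Bliss excess, mean over the matrix in this document: after 72 h of two-drug dosing.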

SMILES	Bliss excess [1]	Bliss excess [2]	Bliss excess [3]	Bliss excess [4]	Bliss excess [5]	combination Emax (A673 (Ewing's Sarcoma))	combination Emax [6]	combination Emax [7]	combination Emax [8]	combination Emax [9]	combination Emax [10]	combination Emax [11]	combination Emax [12]	combination Emax (LOXIMVI (Melanoma))	combination Emax [13]	combination Emax [14]	combination Emax [15]	combination Emax [16]	combination Emax [17]	combination Emax [18]
CC1(C)CCC(CN2CCN(c3ccc(C(=O)NS(=O)(=O)c4ccc(NCC5CCOCC5)c([N+](=O)[O-])c4)c(Oc4cnc5[nH]ccc5c4)c3)CC2)=C(c2ccc(Cl)cc2)C1 [Venetoclax] + C[C@@H]1COCCN1C2=NC(=NC(=C2)C3(CC3)[S@](=N)(=O)C)C4=C5C=CNC5=NC=C4 [AZD6738] (first compound max 1 µM, 7x7, partner max 10 µM)	-0.0384	-0.012	-0.0453	-0.0357	0.0194	0.89	1	0.936	0.664	0.424	0.665	0.121	0.779	0.723	0.587	0.863	0.553	0.981	0.534	0.768
COc1cccc(OCCCN)c1-c1cc(Nc2cnc(C#N)cn2)n[nH]1 [Prexasertib] + CCc1c2c(nc3ccc(O)cc13)-c1cc3c(c(=O)n1C2)COC(=O)[C@]3(O)CC [SN-38] (first compound max 1 µM, 7x7, partner max 0.3 µM)	0.0075	-0.0044	0.0554	-0.0509	-0.0246	0.998	0.993	1	0.875	0.861	0.982	0.79	0.979	0.875	0.871	1	0.848	1	0.484	0.89
Cn1cnc2c(F)c(Nc3ccc(Br)cc3Cl)c(C(=O)NOCCO)cc21 [Selumetinib] + CC(C)n1c(=O)n(C)c2cnc3cc(F)c(-c4ccc(OCCCN5CCCCC5)nc4)cc3c21 [AZD1390] (first compound max 10 µM, 7x7, partner max 0.3 µM)	-0.024	0.0231	-0.0286	0.014	-0.0146	0.185	0.301	0.179	0.517	0.275	0.131	0.144	0.0975	0.658	0.488	0.256	0.142	0.0904	0.481	0.563
CC(=O)c1c(C)c2cnc(Nc3ccc(N4CCNCC4)cn3)nc2n(C2CCCC2)c1=O [Palbociclib] + CC1(C)CCC(CN2CCN(c3ccc(C(=O)NS(=O)(=O)c4ccc(NCC5CCOCC5)c([N+](=O)[O-])c4)c(Oc4cnc5[nH]ccc5c4)c3)CC2)=C(c2ccc(Cl)cc2)C1 [Venetoclax] (first compound max 10 µM, 7x7, partner max 1 µM)	0.0244	-0.0611	-0.0732	0.0309	0.014	0.136	0.931	0.588	0.309	0.0832	0.214	0.132	0.467	0.515	0.138	0.155	0.423	0.921	0.194	0.346
CN(CCO)CC[C@H](CSc1ccccc1)Nc1ccc(S(=O)(=O)NC(=O)c2ccc(N3CCC([C@@H](O)c4ccccc4-c4ccc(Cl)cc4)CC3)cc2)cc1S(=O)(=O)C(F)(F)F [AZD4320] + C[C@@H](Nc1cc(F)cc(F)c1)c1cc(C(=O)N(C)C)cc2c(=O)cc(N3CCOCC3)oc12 [AZD8186] (first compound max 1 µM, 7x7, partner max 3 µM)	-0.0011	0.0583	0.0121	0.0243	0.0033	0.971	1	1	0.35	0.583	0.381	0.387	0.748	0.507		0.917	0.344	1	0.564	0.351
C=CCn1c(=O)c2cnc(Nc3ccc(N4CCN(C)CC4)cc3)nc2n1-c1cccc(C(C)(C)O)n1 [AZD1775] + C1CN(CCC1(C(=O)N[C@@H](CCO)C2=CC=C(C=C2)Cl)N)C3=NC=NC4=C3C=CN4 [Capivasertib] (first compound max 3 µM, partner max 3 µM)	-0.0004		-0.0075	-0.0253	-0.0206	0.526	0.754	0.968	0.741	0.471	0.711	0.579	0.759	0.793	0.636	0.869	0.765	0.873	0.574	0.572
CN(CCO)CC[C@H](CSc1ccccc1)Nc1ccc(S(=O)(=O)NC(=O)c2ccc(N3CCC([C@@H](O)c4ccccc4-c4ccc(Cl)cc4)CC3)cc2)cc1S(=O)(=O)C(F)(F)F [AZD4320] + C1CN(CCC1(C(=O)N[C@@H](CCO)C2=CC=C(C=C2)Cl)N)C3=NC=NC4=C3C=CN4 [Capivasertib] (first compound max 1 µM, 7x7, partner max 3 µM)	-0.0955	-0.0536	-0.0517	0.0073	-0.0369	0.905	0.97	0.994	0.121	0.197	0.245	0.65	0.785	0.202		0.311	0.142	1	0.0873	0.17
CN(CCO)CC[C@H](CSc1ccccc1)Nc1ccc(S(=O)(=O)NC(=O)c2ccc(N3CCC([C@@H](O)c4ccccc4-c4ccc(Cl)cc4)CC3)cc2)cc1S(=O)(=O)C(F)(F)F [AZD4320] + Cn1cnc2c(F)c(Nc3ccc(Br)cc3Cl)c(C(=O)NOCCO)cc21 [Selumetinib] (first compound max 1 µM, 7x7, partner max 3 µM)	0.0212	0.0309	-0.0061	0.0225	0.043	0.971	1	0.995	0.571	0.55	0.261	0.377	0.737	0.689		0.965	0.444	1	0.766	0.613
COc1cccc(OCCCN)c1-c1cc(Nc2cnc(C#N)cn2)n[nH]1 [Prexasertib] + Cc1cc2ncnn2cc1Nc1ncc2c(n1)n(C1CCOCC1)c(=O)n2C [AZD7648] (first compound max 1 µM, 7x7, partner max 10 µM)	0.0182	-0.0259	-0.0204	-0.0116	-0.0247	0.875	0.993	0.952	0.83	0.329	0.858	0.467	0.958	0.784	0.764		0.54	0.974	0.493	0.829
CCc1c2c(nc3ccc(O)cc13)-c1cc3c(c(=O)n1C2)COC(=O)[C@]3(O)CC [SN-38] + CN(C)CCCOc1ccc(-c2ccc3ncc4c(c3c2)n(C2CCOCC2)c(=O)n4C)cn1 [AZD0156] (first compound max 0.3 µM, 7x7, partner max 1 µM)	0.0225	-0.0337	0.0993	-0.0243	0.0781	0.996	0.985	0.748	0.508	0.149	0.827	0.105	0.894	0.784	0.481		0.474	1	0.287	0.567
CN(CCO)CC[C@H](CSc1ccccc1)Nc1ccc(S(=O)(=O)NC(=O)c2ccc(N3CCC([C@@H](O)c4ccccc4-c4ccc(Cl)cc4)CC3)cc2)cc1S(=O)(=O)C(F)(F)F [AZD4320] + CN(C)CCCOc1ccc(-c2ccc3ncc4c(c3c2)n(C2CCOCC2)c(=O)n4C)cn1 [AZD0156] (first compound max 1 µM, 7x7, partner max 1 µM)	0.009	-0.0539	0.0124	-0.0207	-0.0472	0.929	0.97	0.977	0.251	0.154	0.113	0.338	0.828	0.366		0.391	0.313	1	0.174	0.164
CN(CCO)CC[C@H](CSc1ccccc1)Nc1ccc(S(=O)(=O)NC(=O)c2ccc(N3CCC([C@@H](O)c4ccccc4-c4ccc(Cl)cc4)CC3)cc2)cc1S(=O)(=O)C(F)(F)F [AZD4320] + C=CCn1c(=O)c2cnc(Nc3ccc(N4CCN(C)CC4)cc3)nc2n1-c1cccc(C(C)(C)O)n1 [AZD1775] (first compound max 1 µM, partner max 1 µM)	0.0577	-0.0514	0.055		0.05	1	1	1	0.807	0.729	0.61	0.843	0.983	0.691		0.739	0.57	1	0.374	0.357
Cc1c2c(nn1C)CSCc1cc(n(C)n1)CSc1cc(c3ccccc3c1)OCCCc1c(C(=O)O)n(C)c3c-2c(Cl)ccc13 [AZD5991] + C[C@@H]1COCCN1C2=NC(=NC(=C2)C3(CC3)[S@](=N)(=O)C)C4=C5C=CNC5=NC=C4 [AZD6738] (first compound max 1 µM, 7x7, partner max 10 µM)	0.0508	0.0206	-0.0395	0.0157	-0.0367	0.823	1		0.756	0.279	0.516	0.207	0.808	0.742	0.609	1	0.502	0.997	0.561	0.645
